Measurements: US4568690A, “1-Methyl-5-p-methylbenzoylpyrrole-2-acetamidoacetanilides with antiinflammatory, analgesic, antipyretic and anti-platelet aggregant activity” (priority 1983, dated 1986)

Key:
[1] = test system: platelet aggregation (ADP-induced); assay: in vitro anti-platelet aggregant activity (Born's method, ADP); assay type: cell-based, rat; conditions: Rattus norvegicus, Platelet, ADP 7.08 μmol/l, read-out: Inhibition % (platelet aggregation)
Protocol: This activity was studied in vitro following Born's method (G. W. R. Born, Nature, 194, 937 (1962)) and inducing platelet aggregation with ADP. […] For the aggregation test, 0.2 ml of platelet rich plasma was mixed with a NaCl solution (0.9%) to which the test substance was added up to a final volume of 0.6 ml. Incubation was fixed at 3 minutes at 27° C. After aggregation was induced with ADP, the course of the aggregation was monitored continuously with an Elvi 840 Aggregometer (Elvi Logos--Milan). The antiaggregant effects were determined by the difference in the light transmission of the sample with respect to that of the ADP control. The test compound was compared with aspirin, which has known antiplatelet aggregant activity (H. J. Weiss et al., J. Clin. Inv., 47, 2169 (1968); Platelet Aggregation and Drugs, edited by L. Caprino and E. C. Rossi, page 235, Academic Press (London), 1974).
Table VI reports the inhibition of platelet aggregation with various doses of the compounds tested at a constant ADP concentration.

in vivo = conditions: rat, ip
[2] = test system: p-phenylquinone-induced writhing; assay: p-phenylquinone-induced writhing test (analgesic activity); assay type: in vivo; conditions: an hour after administration
Protocol: (§1) Preparations of the compound were administered orally and/or parenterally in a suspension in 0.59% carboxymethylcellulose in pH neutral physiological saline.
The determination was made an hour after administration of the product. The inhibitory effect on abdominal contractions induced by phenyl-p-quinone was calculated as follows: [formula]
Table IV reports the doses, the administration routes and their effectiveness expressed as % protection.

carragenin-induced edema = carragenin-induced edema test (antinflammatory activity); assay type: in vivo, rats
Protocol: as §1
This effect was evaluated with an experimental model reproducing actue inflammation in rats: the carragenin-induced edema test was used, according to the method of C. A. Winter (G. Pharmac. Exp. Ther., 141, 369 (1963)). Table III reports the compounds tested, their concentrations, administration routes and relative percent edema inhibition.

[3] = test system: hyperthermia induced by dry purified beer yeast; assay: antipyretic activity, beer yeast-induced hyperthermia; assay type: in vivo, Wistar strain male albino rats
Protocol: as §1
This effect was evaluated by inducing hyperthermia in Wistar strain male albino rats with an average weight of 250±10 g, injecting them intraperitoneally with a 10% suspension of dry purified beer yeast (Carlo Erba) in a volume of 10 ml/Kg of body weight, according to the method of S. Wong et al. (J. Pharmac. Exp. Ther., 185 (1), 127 (1973)).

gastric mucosa = assay: gastric tolerance (ulcerogenic activity); conditions: orally, four consecutive days; for Mean number severity: severity scale 0-5
Protocol: This was studied by testing ulcerogenic activity in male Wistar rats weighing an average of 180 g, using groups of 10 animals each. Three doses of each substance were used, and one group of animals was treated with vehicle only, in a volume of 10 ml/g body weight. Each dose was administered orally for four consecutive days, and the rats were killed on the fifth day and autopsied. The ulcerogenic effect was evaluated on the following scale:
(1) each hemorrhage point >1 mm was evaluated as 1 lesion
(2) the hemorrhage points <1 were counted as follows:
(b) from 1 to 19 2 lesions
(c) from 1 to 29 3 lesions
(2) gastric mucosa irritation
(3) hemorrhage points <1 mm
(4) hemorrhage points from 1 to 3 mm
(5) hemorrhage points >3 mm
This scale was used to calculate the following index of gastric damage: [formula]

SMILES: Cc1ccc(C(=O)c2ccc(CC(=O)NCC(=O)Nc3cccc(C)c3C)n2C)cc1 [Compound 1f]
- inhibition at 1 µg/mL ([1]; 1 γ/ml): 22%
- inhibition at 5 µg/mL ([1]; 5 γ/ml): 75%
- inhibition at 10 µg/mL ([1]; 10 γ/ml): 90%
- LD50 (in vivo): 1100 mg/kg
- Protection % ([2]; i.p., 5 mg/kg): 15.3%
- Protection % ([2]; i.p., 10 mg/kg): 47.0%
- Protection % ([2]; i.p., 20 mg/kg): 75.0%
- Protection % ([2]; os, 5 mg/kg): 18.0%
- Protection % ([2]; os, 10 mg/kg): 42.1%
- Protection % ([2]; os, 20 mg/kg): 70.3%
- Oedema inhibition % (carragenin-induced edema; i.p., 10 mg/kg, 3 h): 37.1%
- Oedema inhibition % (carragenin-induced edema; i.p., 10 mg/kg, 6 h): 33.4%
- Oedema inhibition % (carragenin-induced edema; i.p., 10 mg/kg, 24 h): 0.0%
- Oedema inhibition % (carragenin-induced edema; i.p., 50 mg/kg, 3 h): 51.6%
- Oedema inhibition % (carragenin-induced edema; i.p., 50 mg/kg, 6 h): 53.9%
- Oedema inhibition % (carragenin-induced edema; i.p., 50 mg/kg, 24 h): 4.2%
- Oedema inhibition % (carragenin-induced edema; i.p., 100 mg/kg, 3 h): 72.5%
- Oedema inhibition % (carragenin-induced edema; i.p., 100 mg/kg, 6 h): 70.0%
- Oedema inhibition % (carragenin-induced edema; i.p., 100 mg/kg, 24 h): 19.1%
- Oedema inhibition % (carragenin-induced edema; os, 10 mg/kg, 3 h): 32.6%
- Oedema inhibition % (carragenin-induced edema; os, 10 mg/kg, 6 h): 34.1%
- Oedema inhibition % (carragenin-induced edema; os, 10 mg/kg, 24 h): 0.0%
- Oedema inhibition % (carragenin-induced edema; os, 50 mg/kg, 3 h): 49.1%
- Oedema inhibition % (carragenin-induced edema; os, 50 mg/kg, 6 h): 49.0%
- Oedema inhibition % (carragenin-induced edema; os, 50 mg/kg, 24 h): 3.4%
- Oedema inhibition % (carragenin-induced edema; os, 100 mg/kg, 3 h): 69.7%
- Oedema inhibition % (carragenin-induced edema; os, 100 mg/kg, 6 h): 69.0%
- Oedema inhibition % (carragenin-induced edema; os, 100 mg/kg, 24 h): 22.1%
- Temperature decrease % ([3]; i.p., 50 mg/kg, 1 h): 12.1%
- Temperature decrease % ([3]; i.p., 50 mg/kg, 2 h): 25.0%
- Temperature decrease % ([3]; i.p., 50 mg/kg, 3 h): 29.8%
- Temperature decrease % ([3]; i.p., 75 mg/kg, 1 h): 16.3%
- Temperature decrease % ([3]; i.p., 75 mg/kg, 2 h): 30.1%
- Temperature decrease % ([3]; i.p., 75 mg/kg, 3 h): 35.1%
- Temperature decrease % ([3]; i.p., 100 mg/kg, 1 h): 38.7%
- Temperature decrease % ([3]; i.p., 100 mg/kg, 2 h): 43.0%
- Temperature decrease % ([3]; i.p., 100 mg/kg, 3 h): 40.0%
- Temperature decrease % ([3]; os, 50 mg/kg, 1 h): 15.1%
- Temperature decrease % ([3]; os, 50 mg/kg, 6 h): 20.0%
- Temperature decrease % ([3]; os, 50 mg/kg, 24 h): 28.7%
- Temperature decrease % ([3]; os, 75 mg/kg, 1 h): 18.2%
- Temperature decrease % ([3]; os, 75 mg/kg, 6 h): 29.5%
- Temperature decrease % ([3]; os, 75 mg/kg, 24 h): 28.7%
- Temperature decrease % ([3]; os, 100 mg/kg, 1 h): 22.1%
- Temperature decrease % ([3]; os, 100 mg/kg, 6 h): 32.0%
- Temperature decrease % ([3]; os, 100 mg/kg, 24 h): 38.1%
- Mean number lesions (gastric mucosa; 50 mg/kg): 1
- Mean number severity (gastric mucosa; 50 mg/kg): 1
- Mean number lesions (gastric mucosa; 100 mg/kg): 2
- Mean number severity (gastric mucosa; 100 mg/kg): 3
- Mean number lesions (gastric mucosa; 200 mg/kg): 3
- Mean number severity (gastric mucosa; 200 mg/kg): 3

SMILES: Cc1ccc(C(=O)c2ccc(CC(=O)O)n2C)cc1 [Tolmetin Na.2H2 O, reference compound]
- Protection % ([2]; i.p., 5 mg/kg): 16.5%
- Protection % ([2]; i.p., 10 mg/kg): 46.2%
- Protection % ([2]; i.p., 20 mg/kg): 69.3%
- Protection % ([2]; os, 5 mg/kg): 15.0%
- Protection % ([2]; os, 10 mg/kg): 40.6%
- Protection % ([2]; os, 20 mg/kg): 62.0%
- Oedema inhibition % (carragenin-induced edema; i.p., 10 mg/kg, 3 h): 33.7%
- Oedema inhibition % (carragenin-induced edema; i.p., 10 mg/kg, 6 h): 30.1%
- Oedema inhibition % (carragenin-induced edema; i.p., 10 mg/kg, 24 h): 0.0%
- Oedema inhibition % (carragenin-induced edema; i.p., 50 mg/kg, 3 h): 47.1%
- Oedema inhibition % (carragenin-induced edema; i.p., 50 mg/kg, 6 h): 44.0%
- Oedema inhibition % (carragenin-induced edema; i.p., 50 mg/kg, 24 h): 0.0%
- Oedema inhibition % (carragenin-induced edema; i.p., 100 mg/kg, 3 h): 58.3%
- Oedema inhibition % (carragenin-induced edema; i.p., 100 mg/kg, 6 h): 52.2%
- Oedema inhibition % (carragenin-induced edema; i.p., 100 mg/kg, 24 h): 5.3%
- Oedema inhibition % (carragenin-induced edema; os, 10 mg/kg, 3 h): 32.0%
- Oedema inhibition % (carragenin-induced edema; os, 10 mg/kg, 6 h): 20.0%
- Oedema inhibition % (carragenin-induced edema; os, 10 mg/kg, 24 h): 0.0%
- Oedema inhibition % (carragenin-induced edema; os, 50 mg/kg, 3 h): 46.8%
- Oedema inhibition % (carragenin-induced edema; os, 50 mg/kg, 6 h): 45.0%
- Oedema inhibition % (carragenin-induced edema; os, 50 mg/kg, 24 h): 0.0%
- Oedema inhibition % (carragenin-induced edema; os, 100 mg/kg, 3 h): 56.1%
- Oedema inhibition % (carragenin-induced edema; os, 100 mg/kg, 6 h): 54.3%
- Oedema inhibition % (carragenin-induced edema; os, 100 mg/kg, 24 h): 8.9%
- Temperature decrease % ([3]; i.p., 50 mg/kg, 1 h): 16.0%
- Temperature decrease % ([3]; i.p., 50 mg/kg, 2 h): 19.0%
- Temperature decrease % ([3]; i.p., 50 mg/kg, 3 h): 31.0%
- Temperature decrease % ([3]; i.p., 75 mg/kg, 1 h): 20.0%
- Temperature decrease % ([3]; i.p., 75 mg/kg, 2 h): 29.2%
- Temperature decrease % ([3]; i.p., 75 mg/kg, 3 h): 34.7%
- Temperature decrease % ([3]; i.p., 100 mg/kg, 1 h): 28.0%
- Temperature decrease % ([3]; i.p., 100 mg/kg, 2 h): 39.1%
- Temperature decrease % ([3]; i.p., 100 mg/kg, 3 h): 31.3%
- Temperature decrease % ([3]; os, 50 mg/kg, 1 h): 18.0%
- Temperature decrease % ([3]; os, 50 mg/kg, 6 h): 20.0%
- Temperature decrease % ([3]; os, 50 mg/kg, 24 h): 29.5%
- Temperature decrease % ([3]; os, 75 mg/kg, 1 h): 20.0%
- Temperature decrease % ([3]; os, 75 mg/kg, 6 h): 26.0%
- Temperature decrease % ([3]; os, 75 mg/kg, 24 h): 27.0%
- Temperature decrease % ([3]; os, 100 mg/kg, 1 h): 32.0%
- Temperature decrease % ([3]; os, 100 mg/kg, 6 h): 30.9%
- Temperature decrease % ([3]; os, 100 mg/kg, 24 h): 47.2%
- Mean number lesions (gastric mucosa; 50 mg/kg): 2
- Mean number severity (gastric mucosa; 50 mg/kg): 2
- Mean number lesions (gastric mucosa; 100 mg/kg): 2.5
- Mean number severity (gastric mucosa; 100 mg/kg): 3.5
- Mean number lesions (gastric mucosa; 200 mg/kg): 3
- Mean number severity (gastric mucosa; 200 mg/kg): 4
